This note sets out measurements from patent publication US9487488B2, “Sulfonamide compound” (MITSUBISHI TANABE PHARMA CORPORATION, priority 2012, dated 2016).

Chain of human TRPM8 (Q7Z2W7 whole entry): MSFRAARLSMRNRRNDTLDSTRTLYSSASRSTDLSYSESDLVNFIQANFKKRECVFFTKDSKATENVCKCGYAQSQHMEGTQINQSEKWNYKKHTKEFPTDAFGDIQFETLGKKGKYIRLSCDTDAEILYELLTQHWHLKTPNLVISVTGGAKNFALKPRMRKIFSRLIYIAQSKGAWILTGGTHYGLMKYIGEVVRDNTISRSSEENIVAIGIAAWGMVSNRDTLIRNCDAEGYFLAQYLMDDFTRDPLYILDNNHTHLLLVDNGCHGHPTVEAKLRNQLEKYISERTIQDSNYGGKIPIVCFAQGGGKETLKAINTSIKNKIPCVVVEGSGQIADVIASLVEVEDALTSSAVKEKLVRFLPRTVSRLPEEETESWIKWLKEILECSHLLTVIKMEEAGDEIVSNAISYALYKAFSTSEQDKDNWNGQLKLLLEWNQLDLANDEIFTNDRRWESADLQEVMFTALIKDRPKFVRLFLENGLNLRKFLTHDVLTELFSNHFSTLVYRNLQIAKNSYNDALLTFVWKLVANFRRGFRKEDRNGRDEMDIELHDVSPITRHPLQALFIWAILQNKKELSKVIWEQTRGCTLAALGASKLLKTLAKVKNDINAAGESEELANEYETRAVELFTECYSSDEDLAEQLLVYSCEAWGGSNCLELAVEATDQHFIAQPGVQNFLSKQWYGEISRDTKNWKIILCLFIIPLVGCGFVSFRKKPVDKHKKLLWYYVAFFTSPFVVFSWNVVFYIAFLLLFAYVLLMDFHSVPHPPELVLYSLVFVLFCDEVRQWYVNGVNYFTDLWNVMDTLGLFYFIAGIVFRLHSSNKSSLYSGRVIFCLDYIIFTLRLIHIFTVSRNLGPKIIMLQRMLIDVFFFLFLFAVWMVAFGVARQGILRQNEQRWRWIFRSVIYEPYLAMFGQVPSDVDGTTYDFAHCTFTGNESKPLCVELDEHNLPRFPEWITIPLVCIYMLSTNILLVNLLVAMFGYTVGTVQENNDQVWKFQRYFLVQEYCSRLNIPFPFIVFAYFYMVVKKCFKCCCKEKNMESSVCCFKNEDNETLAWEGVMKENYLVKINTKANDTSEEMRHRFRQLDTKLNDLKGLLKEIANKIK

The assay concerns the target human TRPM8 (Homo sapiens (Human), UniProt Q7Z2W7). The assay can be described thus: TRPM8 inhibition assay (menthol-induced calcium influx, FDSS). The assay is classed as cell-based. The note with it: HEK293 cells stably expressing human TRPM8; 100 μmol/L menthol; Fura-2AM calcium signal; read-out: TRPM8 Blocking Test (IC50/nmol/L). As to the method: The functional activity of a test compound was determined by measuring change in intracellular calcium concentration using a calcium sensitive fluorescent dye. The change in fluorescent signal was measured by the cell imaging technology by Hamamatsu Photonics's Functional Drug Screening System (FDSS).
HEK293 cells stably expressing human TRPM8 were grown in a flask. On assay day, the culture medium was removed from the flask, and cells were washed with phosphate-buffered saline (PBS) and harvested with PBS containing 2 mmol/L of ethylenediaminetetraacetic acid disodium salt (EDTA-2Na). […] Subsequently, suspended 20,000 to 50,000 cells per well were incubated with a test compound (at varying concentrations) in each well at 37° C. for 20 minutes. Change in intracellular calcium concentration evoked by 100 μmol/L of menthol was measured for 2 minutes using FDSS. […] The concentration-response curve was generated using the average of quadruplicate wells for each data point.
Take `O=S(=O)(c1ccc(-c2nnn[nH]2)cc1)N(Cc1ccc(OC(F)(F)F)cc1)c1ncc2ccccc2c1C1CC1` [Example 1, N-(4-cyclopropylisoquinolin-3-yl)-4-(1H-tetrazol-5-yl)-N-[4-(trifluoromethoxy)benzyl]benzenesulfonamide]: the IC50 worked out at 0.3 nmol/L.

In the case of `O=S(=O)(c1ccc(-c2nnn[nH]2)nc1)N(Cc1ccc(OC(F)(F)F)cc1)c1ncc2ccccc2c1C1CC1` [Example 2, N-(4-cyclopropylisoquinolin-3-yl)-6-(1H-tetrazol-5-yl)-N-[4-(trifluoromethoxy)benzyl]pyridine-3-sulfonamide], the IC50 turned out to be 0.7 nmol/L.

Turning to `O=S(=O)(c1ccc(-c2nnn[nH]2)cn1)N(Cc1ccc(OC(F)(F)F)cc1)c1ncc2ccccc2c1C1CC1` [Example 3, N-(4-cyclopropylisoquinolin-3-yl)-5-(1H-tetrazol-5-yl)-N-[4-(trifluoromethoxy)benzyl]pyridine-2-sulfonamide], the IC50 was found to be 7.6 nmol/L.

Consider `O=c1[nH]nnn1-c1ccc(S(=O)(=O)N(Cc2ccc(OC(F)(F)F)cc2)c2ncc3ccccc3c2C2CC2)cc1` [Example 4, N-(4-cyclopropylisoquinolin-3-yl)-4-(5-oxo-4,5-dihydro-1H-tetrazol-1-yl)-N-[4-(trifluoromethoxy)benzyl]benzenesulfonamide], for which the IC50 stood at 1.1 nmol/L.

Turning to `O=S(=O)(c1ccc(-c2ncn[nH]2)cc1)N(Cc1ccc(OC(F)(F)F)cc1)c1ncc2ccccc2c1C1CC1` [Example 5, N-(4-cyclopropylisoquinolin-3-yl)-4-(2H-1,2,4-triazol-3-yl)-N-[4-(trifluoromethoxy)benzyl]benzenesulfonamide], the IC50 was 3.4 nmol/L.

Turning to `O=S(=O)(c1ccc(-c2ncn[nH]2)nc1)N(Cc1ccc(OC(F)(F)F)cc1)c1ncc2ccccc2c1C1CC1` [Example 6, N-(4-cyclopropylisoquinolin-3-yl)-6-(1H-1,2,4-triazol-5-yl)-N-[4-(trifluoromethoxy)benzyl]pyridine-3-sulfonamide], the IC50 came out at 1.7 nmol/L.

In the case of `O=c1[nH]c(-c2ccc(S(=O)(=O)N(Cc3ccc(OC(F)(F)F)cc3)c3ncc4ccccc4c3C3CC3)cc2)no1` [Example 7, N-(4-cyclopropylisoquinolin-3-yl)-4-(5-oxo-4,5-dihydro-1,2,4-oxadiazol-3-yl)-N-[4-(trifluoromethoxy)benzyl]benzenesulfonamide], the IC50 came to 1 nmol/L.

With `O=c1[nH]c(-c2ccc(S(=O)(=O)N(Cc3ccc(OC(F)(F)F)cc3)c3ncc4ccccc4c3C(F)(F)F)cc2)no1` [Example 8, 4-(5-oxo-4,5-dihydro-1,2,4-oxadiazol-3-yl)-N-[4-(trifluoromethoxy)benzyl]-N-[4-(trifluoromethyl)isoquinolin-3-yl]benzenesulfonamide], the IC50 is 2.3 nmol/L.

For the compound `O=c1[nH]c(-c2ccc(S(=O)(=O)N(Cc3ccc(OC(F)(F)F)cc3)c3ncc4ccccc4c3C3CC3)cn2)no1` [Example 9, N-(4-cyclopropylisoquinolin-3-yl)-6-(5-oxo-4,5-dihydro-1,2,4-oxadiazol-3-yl)-N-[4-(trifluoromethoxy)benzyl]pyridine-3-sulfonamide], the IC50 was 1.1 nmol/L.

For the compound `CC(=O)NCc1ccc(S(=O)(=O)N(Cc2ccc(OC(F)(F)F)cc2)c2ncc3ccccc3c2C2CC2)cc1` [Example 10, N-[4-({(4-cyclopropylisoquinolin-3-yl)[4-(trifluoromethoxy)benzyl]amino}sulfonyl)benzyl]acetamide], the IC50 is 23.9 nmol/L.

For the compound `CS(=O)(=O)NCc1ccc(S(=O)(=O)N(Cc2ccc(OC(F)(F)F)cc2)c2ncc3ccccc3c2C2CC2)cc1` [Example 11, N-(4-cyclopropylisoquinolin-3-yl)-4-{[(methylsulfonyl)amino]methyl}-N-[4-(trifluoromethoxy)benzyl]benzenesulfonamide], the IC50 was 29.5 nmol/L.

Regarding `O=S(=O)(c1ccc(CNS(=O)(=O)C(F)(F)F)cc1)N(Cc1ccc(OC(F)(F)F)cc1)c1ncc2ccccc2c1C1CC1` [Example 12, N-(4-cyclopropylisoquinolin-3-yl)-N-[4-(trifluoromethoxy)benzyl]-4-({[(trifluoromethyl)sulfonyl]amino}methyl)benzenesulfonamide], the IC50 came to 40.2 nmol/L.

For the compound `O=c1[nH][nH]c2cc(S(=O)(=O)N(Cc3ccc(OC(F)(F)F)cc3)c3ncc4ccccc4c3C3CC3)ccc12` [Example 13, N-(4-cyclopropylisoquinolin-3-yl)-3-oxo-N-[4-(trifluoromethoxy)benzyl]-2,3-dihydro-1H-indazole-6-sulfonamide], the IC50 was 4.3 nmol/L.

Regarding `Cc1c(N(Cc2ccc(OC(F)(F)F)cc2)S(=O)(=O)c2ccc(-c3nnn[nH]3)cc2)nc(C2CC2)c2ccccc12` [Example 14], the IC50 turned out to be 0.7 nmol/L.

Take `O=S(=O)(c1ccc(-c2nnn[nH]2)cc1)N(Cc1ccc(OC(F)(F)F)cc1)c1ncc2ccccc2c1C(F)(F)F` [Example 15]: the IC50 came out at 2 nmol/L.

As for `O=S(=O)(c1ccc(-c2nnn[nH]2)nc1)N(Cc1ccc(OC(F)(F)F)cc1)c1ncc2ccccc2c1C(F)(F)F` [Example 16], the IC50 turned out to be 1.6 nmol/L.

For `Cc1cc(S(=O)(=O)N(Cc2ccc(OC(F)(F)F)cc2)c2ncc3ccccc3c2C2CC2)ccc1-c1nnn[nH]1` [Example 17], the IC50 was 0.3 nmol/L.

On to `O=S(=O)(c1ccc(-c2nnn[nH]2)cc1)N(Cc1ccc(C(F)(F)F)cn1)c1ncc2ccccc2c1C1CC1` [Example 18], for which the IC50 is 0.9 nmol/L.

For the compound `O=S(=O)(c1ccc(-c2ncn[nH]2)cc1)N(Cc1ccc(OC(F)(F)F)cc1)c1ncc2ccccc2c1C(F)(F)F` [Example 20], the IC50 came to 3.2 nmol/L.

Turning to `Cc1n[nH]c(-c2ccc(S(=O)(=O)N(Cc3ccc(OC(F)(F)F)cc3)c3ncc4ccccc4c3C(F)(F)F)cc2)n1` [Example 21], the IC50 amounted to 1.1 nmol/L.

For the compound `Cc1n[nH]c(-c2ccc(S(=O)(=O)N(Cc3ccc(OC(F)(F)F)cc3)c3ncc4ccccc4c3C3CC3)cc2)n1` [Example 22], the IC50 was 0.6 nmol/L.

Consider `Cc1cc(S(=O)(=O)N(Cc2ccc(OC(F)(F)F)cc2)c2ncc3ccccc3c2C2CC2)ccc1-c1ncn[nH]1` [Example 23], for which the IC50 was found to be 0.5 nmol/L.

Take `O=S(=O)(c1ccc(-c2ncn[nH]2)cc1)N(Cc1ccc(C(F)(F)F)cn1)c1ncc2ccccc2c1C1CC1` [Example 24]: the IC50 was found to be 1.2 nmol/L.

Consider `Cc1n[nH]c(-c2ccc(S(=O)(=O)N(Cc3ccc(C(F)(F)F)cn3)c3ncc4ccccc4c3C3CC3)cc2)n1` [Example 25], for which the IC50 turned out to be 0.7 nmol/L.

In the case of `Cc1cc(S(=O)(=O)N(Cc2ccc(C(F)(F)F)cn2)c2ncc3ccccc3c2C2CC2)ccc1-c1ncn[nH]1` [Example 26], the IC50 was determined as 1 nmol/L.

In the case of `Cc1n[nH]c(-c2ccc(S(=O)(=O)N(Cc3ccc(C(F)(F)F)cn3)c3ncc4ccccc4c3C3CC3)cc2C)n1` [Example 27], the IC50 amounted to 0.8 nmol/L.

On to `O=S(=O)(c1ccc(-c2ncn[nH]2)nc1)N(Cc1ccc(OC(F)(F)F)cc1)c1ncc2ccccc2c1C(F)(F)F` [Example 28], for which the IC50 was 3.5 nmol/L.

On to `Cc1n[nH]c(-c2ccc(S(=O)(=O)N(Cc3ccc(OC(F)(F)F)cc3)c3ncc4ccccc4c3C(F)(F)F)cn2)n1` [Example 29], for which the IC50 was 2.2 nmol/L.

For `Cc1n[nH]c(-c2ccc(S(=O)(=O)N(Cc3ccc(OC(F)(F)F)cc3)c3ncc4ccccc4c3C3CC3)cn2)n1` [Example 30], the IC50 was 1.1 nmol/L.

For the compound `O=c1[nH]c(-c2ccc(S(=O)(=O)N(Cc3ccc(C(F)(F)F)cn3)c3ncc4ccccc4c3C3CC3)cc2)no1` [Example 31], the IC50 was 1.1 nmol/L.

In the case of `Cc1c(N(Cc2ccc(OC(F)(F)F)cc2)S(=O)(=O)c2ccc(-c3noc(=O)[nH]3)cc2)nc(C2CC2)c2ccccc12` [Example 32], the IC50 was 2.7 nmol/L.

As to `O=c1[nH]c(-c2ccc(S(=O)(=O)N(Cc3ccc(OC(F)(F)F)cc3)c3ncc4ccccc4c3C(F)(F)F)cn2)no1` [Example 33], the IC50 came to 3.6 nmol/L.

Turning to `Cc1cc(S(=O)(=O)N(Cc2ccc(OC(F)(F)F)cc2)c2ncc3ccccc3c2C2CC2)ccc1-c1noc(=O)[nH]1` [Example 34], the IC50 was 0.5 nmol/L.

For the compound `O=c1[nH]c(-c2ccc(S(=O)(=O)N(Cc3ccc(OC(F)(F)F)cc3)c3ncc4ccccc4c3C3CC3)nc2)no1` [Example 35], the IC50 came to 9.6 nmol/L.

As to `Cc1cc(S(=O)(=O)N(Cc2ccc(OC(F)(F)F)cc2)c2ncc3ccccc3c2C2CC2)ccc1C(=O)O` [Example 36, 4-({(4-cyclopropylisoquinolin-3-yl)[4-(trifluoromethoxy)benzyl]amino}sulfonyl)-2-methylbenzoic acid], the IC50 was found to be 1.4 nmol/L.

Regarding `Cc1cc(S(=O)(=O)N(Cc2ccc(C(F)(F)F)cn2)c2ncc3ccccc3c2C2CC2)ccc1C(=O)O` [Example 37, 4-[((4-cyclopropylisoquinolin-3-yl){[5-(trifluoromethyl)pyridin-2-yl]methyl}amino)sulfonyl]-2-methylbenzoic acid], the IC50 worked out at 9.5 nmol/L.

For the compound `Cc1cc(C(=O)O)ccc1S(=O)(=O)N(Cc1ccc(OC(F)(F)F)cc1)c1ncc2ccccc2c1C1CC1` [Example 38, 4-({(4-cyclopropylisoquinolin-3-yl)[4-(trifluoromethoxy)benzyl]amino}sulfonyl)-3-methylbenzoic acid], the IC50 was 0.7 nmol/L.

As to `COCc1cc(S(=O)(=O)N(Cc2ccc(OC(F)(F)F)cc2)c2ncc3ccccc3c2C2CC2)ccc1C(=O)O` [Example 39, 4-({(4-cyclopropylisoquinolin-3-yl)[4-(trifluoromethoxy)benzyl]amino}sulfonyl)-2-(methoxymethyl)benzoic acid], the IC50 worked out at 1.4 nmol/L.
